Experimental data from a compilation of properties of binary mixtures (doi:10.1007/s10953-022-01154-2).

Assay: xn = mol fraction of the nth substance listed
Conditions: 101.3 kPa

CC1COC(=O)O1 (stereo not given) + CC[n+]1ccn(C)c1.N#C[S-]
viscosity (298.15 K, x2 = 0): 2.496 mPa·s
viscosity (303.15 K, x2 = 0): 2.164 mPa·s
viscosity (313.15 K, x2 = 0): 1.731 mPa·s
viscosity (318.15 K, x2 = 0): 1.586 mPa·s
viscosity (323.15 K, x2 = 0): 1.466 mPa·s
viscosity (328.15 K, x2 = 0): 1.373 mPa·s
viscosity (338.18 K, x2 = 0): 1.223 mPa·s
viscosity (343.15 K, x2 = 0): 1.173 mPa·s

CC[n+]1ccn(C)c1.N#C[S-] + CC1COC(=O)O1
electrical conductivity (293.15 K, x1 = 0.0989): 1.49 S/m
viscosity (293.15 K, x1 = 0.0989): 4.213 mPa·s
electrical conductivity (293.15 K, x1 = 0.4): 2.17 S/m
viscosity (293.15 K, x1 = 0.4): 9.86 mPa·s
electrical conductivity (293.15 K, x1 = 0.499): 2.06 S/m
viscosity (293.15 K, x1 = 0.499): 12.27 mPa·s
electrical conductivity (293.15 K, x1 = 0.599): 1.96 S/m
viscosity (293.15 K, x1 = 0.599): 15.04 mPa·s
electrical conductivity (293.15 K, x1 = 0.7045): 1.89 S/m
viscosity (293.15 K, x1 = 0.7045): 18.06 mPa·s
electrical conductivity (293.15 K, x1 = 0.796): 1.77 S/m
viscosity (293.15 K, x1 = 0.796): 20.66 mPa·s
electrical conductivity (293.15 K, x1 = 0.8942): 1.66 S/m
viscosity (293.15 K, x1 = 0.8942): 23.53 mPa·s
electrical conductivity (293.15 K, x1 = 1): 1.58 S/m
viscosity (293.15 K, x1 = 1): 26.76 mPa·s
electrical conductivity (298.15 K, x1 = 0.2045): 2.28 S/m
viscosity (298.15 K, x1 = 0.2045): 5.073 mPa·s
electrical conductivity (298.15 K, x1 = 0.2984): 2.45 S/m
viscosity (298.15 K, x1 = 0.2984): 6.601 mPa·s
electrical conductivity (298.15 K, x1 = 0.499): 2.25 S/m
viscosity (298.15 K, x1 = 0.499): 10.59 mPa·s
electrical conductivity (298.15 K, x1 = 0.796): 1.97 S/m
viscosity (298.15 K, x1 = 0.796): 17.73 mPa·s
electrical conductivity (298.15 K, x1 = 0.8942): 1.86 S/m
viscosity (298.15 K, x1 = 0.8942): 20.22 mPa·s
electrical conductivity (298.15 K, x1 = 1): 1.75 S/m
viscosity (298.15 K, x1 = 1): 23.11 mPa·s
electrical conductivity (303.15 K, x1 = 0.0989): 1.86 S/m
viscosity (303.15 K, x1 = 0.0989): 3.259 mPa·s
electrical conductivity (303.15 K, x1 = 0.2045): 2.48 S/m
viscosity (303.15 K, x1 = 0.2045): 4.415 mPa·s
electrical conductivity (303.15 K, x1 = 0.2984): 2.67 S/m
viscosity (303.15 K, x1 = 0.2984): 5.742 mPa·s
electrical conductivity (303.15 K, x1 = 0.4): 2.58 S/m
viscosity (303.15 K, x1 = 0.4): 7.328 mPa·s
electrical conductivity (303.15 K, x1 = 0.499): 2.47 S/m
viscosity (303.15 K, x1 = 0.499): 9.17 mPa·s
electrical conductivity (303.15 K, x1 = 0.599): 2.38 S/m
viscosity (303.15 K, x1 = 0.599): 11.19 mPa·s
electrical conductivity (303.15 K, x1 = 0.7045): 2.28 S/m
viscosity (303.15 K, x1 = 0.7045): 13.39 mPa·s
electrical conductivity (303.15 K, x1 = 0.796): 2.19 S/m
viscosity (303.15 K, x1 = 0.796): 15.34 mPa·s
electrical conductivity (303.15 K, x1 = 0.8942): 2.06 S/m
viscosity (303.15 K, x1 = 0.8942): 17.54 mPa·s
electrical conductivity (303.15 K, x1 = 1): 1.95 S/m
viscosity (303.15 K, x1 = 1): 20.12 mPa·s
electrical conductivity (308.15 K, x1 = 0.0989): 2.09 S/m
viscosity (308.15 K, x1 = 0.0989): 2.877 mPa·s
electrical conductivity (308.15 K, x1 = 0.2045): 2.7 S/m
viscosity (308.15 K, x1 = 0.2045): 3.859 mPa·s
electrical conductivity (308.15 K, x1 = 0.2984): 2.92 S/m
viscosity (308.15 K, x1 = 0.2984): 4.972 mPa·s
electrical conductivity (308.15 K, x1 = 0.4): 2.82 S/m
viscosity (308.15 K, x1 = 0.4): 6.341 mPa·s
electrical conductivity (308.15 K, x1 = 0.499): 2.71 S/m
viscosity (308.15 K, x1 = 0.499): 7.916 mPa·s
electrical conductivity (308.15 K, x1 = 0.599): 2.62 S/m
viscosity (308.15 K, x1 = 0.599): 9.67 mPa·s
electrical conductivity (308.15 K, x1 = 0.7045): 2.52 S/m
viscosity (308.15 K, x1 = 0.7045): 11.57 mPa·s
electrical conductivity (308.15 K, x1 = 0.796): 2.42 S/m
viscosity (308.15 K, x1 = 0.796): 13.28 mPa·s
electrical conductivity (308.15 K, x1 = 0.8942): 2.29 S/m
viscosity (308.15 K, x1 = 0.8942): 15.21 mPa·s
electrical conductivity (308.15 K, x1 = 1): 2.17 S/m
viscosity (308.15 K, x1 = 1): 17.5 mPa·s
electrical conductivity (313.15 K, x1 = 0.0989): 2.32 S/m
viscosity (313.15 K, x1 = 0.0989): 2.569 mPa·s
electrical conductivity (313.15 K, x1 = 0.2045): 2.94 S/m
viscosity (313.15 K, x1 = 0.2045): 3.39 mPa·s
electrical conductivity (313.15 K, x1 = 0.2984): 3.17 S/m
viscosity (313.15 K, x1 = 0.2984): 4.367 mPa·s
electrical conductivity (313.15 K, x1 = 0.4): 3.07 S/m
viscosity (313.15 K, x1 = 0.4): 5.56 mPa·s
electrical conductivity (313.15 K, x1 = 0.499): 2.96 S/m
viscosity (313.15 K, x1 = 0.499): 6.909 mPa·s
electrical conductivity (313.15 K, x1 = 0.599): 2.87 S/m
viscosity (313.15 K, x1 = 0.599): 8.432 mPa·s
electrical conductivity (313.15 K, x1 = 0.796): 2.67 S/m
viscosity (313.15 K, x1 = 0.796): 11.58 mPa·s
electrical conductivity (313.15 K, x1 = 0.8942): 2.52 S/m
viscosity (313.15 K, x1 = 0.8942): 13.32 mPa·s
electrical conductivity (313.15 K, x1 = 1): 2.39 S/m
viscosity (313.15 K, x1 = 1): 15.32 mPa·s
electrical conductivity (318.15 K, x1 = 0.0989): 2.55 S/m
viscosity (318.15 K, x1 = 0.0989): 2.299 mPa·s
electrical conductivity (318.15 K, x1 = 0.4): 3.33 S/m
viscosity (318.15 K, x1 = 0.4): 4.83 mPa·s
electrical conductivity (318.15 K, x1 = 0.499): 3.22 S/m
viscosity (318.15 K, x1 = 0.499): 5.988 mPa·s
electrical conductivity (318.15 K, x1 = 0.796): 2.92 S/m
viscosity (318.15 K, x1 = 0.796): 10.18 mPa·s
electrical conductivity (318.15 K, x1 = 1): 2.64 S/m
viscosity (318.15 K, x1 = 1): 13.45 mPa·s
electrical conductivity (323.15 K, x1 = 0.0989): 2.8 S/m
viscosity (323.15 K, x1 = 0.0989): 2.074 mPa·s
electrical conductivity (323.15 K, x1 = 0.2984): 3.72 S/m
viscosity (323.15 K, x1 = 0.2984): 3.34 mPa·s
electrical conductivity (323.15 K, x1 = 0.4): 3.6 S/m
viscosity (323.15 K, x1 = 0.4): 4.247 mPa·s
electrical conductivity (323.15 K, x1 = 0.7045): 3.28 S/m
viscosity (323.15 K, x1 = 0.7045): 7.629 mPa·s
electrical conductivity (323.15 K, x1 = 0.796): 3.18 S/m
viscosity (323.15 K, x1 = 0.796): 8.83 mPa·s
electrical conductivity (323.15 K, x1 = 0.8942): 3.03 S/m
viscosity (323.15 K, x1 = 0.8942): 10.15 mPa·s
electrical conductivity (323.15 K, x1 = 1): 2.89 S/m
viscosity (323.15 K, x1 = 1): 11.78 mPa·s
electrical conductivity (328.15 K, x1 = 0.0989): 3.05 S/m
viscosity (328.15 K, x1 = 0.0989): 1.878 mPa·s
electrical conductivity (328.15 K, x1 = 0.2045): 3.72 S/m
viscosity (328.15 K, x1 = 0.2045): 2.36 mPa·s
electrical conductivity (328.15 K, x1 = 0.2984): 4 S/m
viscosity (328.15 K, x1 = 0.2984): 2.943 mPa·s
electrical conductivity (328.15 K, x1 = 0.4): 3.88 S/m
viscosity (328.15 K, x1 = 0.4): 3.72 mPa·s
electrical conductivity (328.15 K, x1 = 0.7045): 3.55 S/m
viscosity (328.15 K, x1 = 0.7045): 6.692 mPa·s
electrical conductivity (328.15 K, x1 = 1): 3.15 S/m
viscosity (328.15 K, x1 = 1): 10.37 mPa·s
electrical conductivity (333.15 K, x1 = 0.2045): 4.02 S/m
viscosity (333.15 K, x1 = 0.2045): 2.095 mPa·s
electrical conductivity (333.15 K, x1 = 0.2984): 4.29 S/m
viscosity (333.15 K, x1 = 0.2984): 2.593 mPa·s
electrical conductivity (333.15 K, x1 = 0.4): 4.18 S/m
viscosity (333.15 K, x1 = 0.4): 3.284 mPa·s
electrical conductivity (333.15 K, x1 = 0.499): 4.06 S/m
viscosity (333.15 K, x1 = 0.499): 4.06 mPa·s
electrical conductivity (333.15 K, x1 = 0.599): 3.96 S/m
viscosity (333.15 K, x1 = 0.599): 4.939 mPa·s
electrical conductivity (333.15 K, x1 = 0.7045): 3.84 S/m
viscosity (333.15 K, x1 = 0.7045): 5.885 mPa·s
electrical conductivity (333.15 K, x1 = 0.796): 3.74 S/m
viscosity (333.15 K, x1 = 0.796): 6.792 mPa·s
electrical conductivity (333.15 K, x1 = 0.8942): 3.6 S/m
viscosity (333.15 K, x1 = 0.8942): 7.876 mPa·s
electrical conductivity (333.15 K, x1 = 1): 3.43 S/m
viscosity (333.15 K, x1 = 1): 9.21 mPa·s
electrical conductivity (338.15 K, x1 = 0.2045): 4.34 S/m
electrical conductivity (338.15 K, x1 = 0.2984): 4.61 S/m
electrical conductivity (338.15 K, x1 = 0.4): 4.47 S/m
electrical conductivity (338.15 K, x1 = 0.499): 4.35 S/m
electrical conductivity (338.15 K, x1 = 0.599): 4.26 S/m
electrical conductivity (338.15 K, x1 = 0.7045): 4.13 S/m
electrical conductivity (338.15 K, x1 = 0.796): 4.02 S/m
electrical conductivity (338.15 K, x1 = 0.8942): 3.89 S/m
electrical conductivity (338.15 K, x1 = 1): 3.72 S/m
viscosity (338.18 K, x1 = 0.0989): 1.557 mPa·s
viscosity (338.18 K, x1 = 0.2045): 1.89 mPa·s
viscosity (338.18 K, x1 = 0.4): 2.891 mPa·s
viscosity (338.18 K, x1 = 0.499): 3.563 mPa·s
viscosity (338.18 K, x1 = 0.599): 4.34 mPa·s
viscosity (338.18 K, x1 = 0.7045): 5.225 mPa·s
viscosity (338.18 K, x1 = 0.796): 6.089 mPa·s
viscosity (338.18 K, x1 = 0.8942): 7.068 mPa·s
viscosity (338.18 K, x1 = 1): 8.1 mPa·s
electrical conductivity (343.15 K, x1 = 0.0989): 3.88 S/m
viscosity (343.15 K, x1 = 0.0989): 1.432 mPa·s
electrical conductivity (343.15 K, x1 = 0.2045): 4.67 S/m
viscosity (343.15 K, x1 = 0.2045): 1.699 mPa·s
electrical conductivity (343.15 K, x1 = 0.2984): 4.92 S/m
viscosity (343.15 K, x1 = 0.2984): 2.057 mPa·s
electrical conductivity (343.15 K, x1 = 0.599): 4.57 S/m
viscosity (343.15 K, x1 = 0.599): 3.859 mPa·s
electrical conductivity (343.15 K, x1 = 0.7045): 4.44 S/m
viscosity (343.15 K, x1 = 0.7045): 4.651 mPa·s
electrical conductivity (343.15 K, x1 = 0.796): 4.32 S/m
viscosity (343.15 K, x1 = 0.796): 5.421 mPa·s
electrical conductivity (343.15 K, x1 = 0.8942): 4.2 S/m
viscosity (343.15 K, x1 = 0.8942): 6.296 mPa·s
